These are literature values, as cited in patent US11134689B2, “Natural volatile plant oils to repel arthropods” (Shepard Farms, LLC, priority 2011, dated 2021).

This data set has as its system fruit fly (Ceratitis capitata). The conditions noted are these: in vivo.

Regarding `CC12CCC(CC1)C(C)(C)O2` [1,8-cineole], the insecticidal activity entry is recorded as “high insecticidal activity”.
